Source: US20200147059A1, “NEW THERAPEUTIC USES OF ENZYME INHIBITORS” (Proximagen, LLC, priority 2017, published 2020)
Each block holds one molecule with its values, some of them ahead of it.

Legend:
[1] = biological target: T1, human VAP-1 (SSAO) (Homo sapiens, UniProt Q16853); assay: VAP-1 Inhibition Assay; type: biochemical; settings: purified recombinantly expressed human VAP-1 (SSAO), benzylamine substrate, room temperature
T1 construct: made in house
T1 sequence (Q16853 29-763 limits assumed): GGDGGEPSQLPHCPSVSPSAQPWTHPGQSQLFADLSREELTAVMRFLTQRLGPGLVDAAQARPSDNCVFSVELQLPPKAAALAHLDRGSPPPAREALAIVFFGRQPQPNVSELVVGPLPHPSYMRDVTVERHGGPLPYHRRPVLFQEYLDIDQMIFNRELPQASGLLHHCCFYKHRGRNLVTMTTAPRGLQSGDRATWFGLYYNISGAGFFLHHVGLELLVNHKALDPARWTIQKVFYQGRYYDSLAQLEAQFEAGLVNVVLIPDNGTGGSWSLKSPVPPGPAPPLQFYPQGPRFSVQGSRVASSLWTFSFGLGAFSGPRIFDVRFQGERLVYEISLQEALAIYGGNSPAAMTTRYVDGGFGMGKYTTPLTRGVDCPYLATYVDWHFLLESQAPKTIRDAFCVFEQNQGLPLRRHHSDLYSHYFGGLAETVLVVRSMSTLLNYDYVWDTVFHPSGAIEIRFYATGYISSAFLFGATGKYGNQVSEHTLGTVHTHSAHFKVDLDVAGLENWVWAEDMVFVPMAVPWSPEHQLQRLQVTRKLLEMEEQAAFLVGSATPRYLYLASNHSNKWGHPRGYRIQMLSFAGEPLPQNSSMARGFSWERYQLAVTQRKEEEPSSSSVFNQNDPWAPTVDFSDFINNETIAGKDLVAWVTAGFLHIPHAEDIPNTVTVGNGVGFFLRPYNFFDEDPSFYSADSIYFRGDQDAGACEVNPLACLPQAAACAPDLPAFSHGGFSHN
Method: This assay is performed at room temperature with purified recombinantly expressed human VAP-1 (SSAO). Enzyme was prepared essentially as described in Ohman et al. (Protein Expression and Purification 46 (2006) 321-331). The enzyme activity is assayed with benzylamine as substrate by measuring either benzaldehyde production, using 14C-labeled substrate, or by utilizing the production of hydrogen peroxide in a horseradish peroxidise (HRP) coupled reaction. Briefly, test compounds are dissolved in dimethyl sulfoxide (DMSO) to a concentration of 10 mM. Dose-response measurements are assayed by either creating 1:10 serial dilutions in DMSO to produce a 7 point curve or by making 1:3 serial dilutions in DMSO to produce 11 point curves. The top concentrations are adjusted depending on the potency of the compounds and subsequent dilution in reaction buffer yielded a final DMSO concentration ≤2%.
Hydrogen peroxide detection: In a horseradish peroxidise (HRP) coupled reaction, hydrogen peroxide oxidation of 10-acetyl-3,7-dihydroxyphenoxazine produces resorufin, which is a highly fluorescent compound (Zhout and Panchuk-Voloshina. Analytical Biochemistry 253 (1997) 169-174; AmplexR Red Hydrogen Peroxide/peroxidise Assay kit, Invitrogen A22188). Enzyme and compounds in 50 mM sodium phosphate, pH 7.4 are set to pre-incubate in flat-bottomed microtiter plates for approximately 15 minutes before initiating the reaction by addition of a mixture of HRP, benzylamine and Amplex reagent. Benzylamine concentration is fixed at a concentration corresponding to the Michaelis constant, determined using standard procedures. Fluorescence intensity is then measured at several time points during 1-2 hours, exciting at 544 nm and reading the emission at 590 nm. For the human SSAO assay final concentrations of the reagents in the assay wells are: SSAO enzyme 1 mg/ml, benzylamine 100 μM, Amplex reagent 20 μM, HRP 0.1 U/mL and varying concentrations of test compound. The inhibition is measured as % decrease of the signal compared to a control without inhibitor (only diluted DMSO). The background signal from a sample containing no SSAO enzyme is subtracted from all data points. Data is fitted to a four parameter logistic model and IC50 values are calculated, for example by using the GraphPad Prism 4 or XLfit 4 programs.

[2] = tested on: sumatriptan-primed rats; assay: stress induced allodynia in a rat model of medication overuse headache (MOH); type: in vivo; settings: bright light stress, oral 33.3 mg/ml, 3 ml/kg, measured day 21 over 5 h
Method: The effects of compounds on stress induced allodynia in a rat model of medication overuse headache (MOH) The effects of compounds on stress induced cephalic and extracephalic allodynia in sumatriptan-primed rats was tested.
Sprague Dawley rats were implanted with osmotic minipumps (model 2001; Alzet, Cupertino, Calif., USA) providing continuous infusion of sumatriptan (0.6 mg/kg/day, s.c) or vehicle (saline, 0.9% NaCl) for 7 days. Mechanical facial (FIG. 1; A) and hindpaw (FIG. 1; C) allodynia was measured during a 19 day time course.
On day 20, when mechanical thresholds are at basal levels, all rats received either 4-{5-[3-(4-Fluorophenyl)-3H-imidazo[4,5-c]pyridin-2-yl]pyridin-2-yl}morpholine (compound 4) or vehicle orally (33.3 mg/ml, Dose 3 ml/kg) and then they were exposed to bright lights for 1 h (bright light stress; BLS). Rats received a second dose of the assigned treatment in the afternoon.
On day 21 all rats received a third dose of the assigned treatment and then they were again exposed to BLS for 1 h. Mechanical facial (FIG. 1; B) and hindpaw (FIG. 1; D) allodynia was measured over a 5 h time course.
Sumatriptan-treated, but not saline-treated, rats developed generalized allodynia during minipump infusion measured in the periorbital and hindpaw regions (FIG. 1; A, C; day 6). Mechanical thresholds returned to baseline on days 10 and 19. […]

[3] = CNS penetration (brain:plasma ratio); type: in vivo; settings: rat, whole brain homogenate and plasma, intravenous; total brain:plasma ratio adjusted for plasma protein binding and brain tissue binding; read-out: unbound (free) brain:plasma ratio
Source text: Central nervous system (CNS) penetration of compounds of the invention can be determined by for example, intravenous dosing in a rat and subsequent quantitative LCMS analysis of the drug concentration in plasma and whole brain homogenate. The total brain:plasma ratio can then be calculated. This total ratio can be adjusted for plasma protein binding (PPB) and brain tissue binding (BTB) determined by standard means to give an unbound (free) brain:plasma ratio. For example, Compound 4 of the invention has an unbound (free) brain:plasma ratio of 0.72, indicating good CNS penetration of the compound.

[4] = biological target: T2, VAP-1 (Homo sapiens, UniProt Q16853); settings: known; cited from earlier work
T2 sequence (Q16853 1-763): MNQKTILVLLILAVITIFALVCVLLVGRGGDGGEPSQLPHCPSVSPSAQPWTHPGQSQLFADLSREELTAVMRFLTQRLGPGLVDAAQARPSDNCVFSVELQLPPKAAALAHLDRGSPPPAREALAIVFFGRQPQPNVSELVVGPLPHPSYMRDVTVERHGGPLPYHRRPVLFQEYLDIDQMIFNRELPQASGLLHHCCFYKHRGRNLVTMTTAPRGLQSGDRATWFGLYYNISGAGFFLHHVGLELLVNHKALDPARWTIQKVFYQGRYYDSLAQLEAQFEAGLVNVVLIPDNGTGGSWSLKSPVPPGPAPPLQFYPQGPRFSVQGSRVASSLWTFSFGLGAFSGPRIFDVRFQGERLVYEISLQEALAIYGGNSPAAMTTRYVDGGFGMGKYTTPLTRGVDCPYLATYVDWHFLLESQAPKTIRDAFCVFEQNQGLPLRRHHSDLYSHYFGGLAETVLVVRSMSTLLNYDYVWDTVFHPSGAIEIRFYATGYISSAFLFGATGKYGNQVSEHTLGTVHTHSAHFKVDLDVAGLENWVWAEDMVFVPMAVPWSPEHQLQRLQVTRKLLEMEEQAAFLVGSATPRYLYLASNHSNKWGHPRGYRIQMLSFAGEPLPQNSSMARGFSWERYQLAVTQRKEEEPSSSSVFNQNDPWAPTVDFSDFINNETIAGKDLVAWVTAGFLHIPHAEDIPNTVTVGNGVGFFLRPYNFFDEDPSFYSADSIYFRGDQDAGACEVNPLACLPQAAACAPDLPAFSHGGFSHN

[5] = tested on: sumatriptan-primed rats; settings: Kopruszinski et al, Cephalalgia, 2017; cited from earlier work
[6] = phase IIb chronic migraine study; cited from earlier work

- IC50 [1]: 13 nM
- unbound brain:plasma ratio (Kp,uu) [3]: 0.72
Molecule: Fc1ccc(-n2c(-c3ccc(N4CCOCC4)nc3)nc3ccncc32)cc1 [Compound 4, 4-{5-[3-(4-Fluorophenyl)-3H-imidazo[4,5-c]pyridin-2-yl]pyridin-2-yl}morpholine]
- stress-induced hindpaw allodynia [2]: significantly reduced
- stress-induced periorbital allodynia [2]: significantly reduced

Molecule: NC(CO)C(=O)NNCc1ccc(O)c(O)c1O (stereo not drawn) [benserazide, Benserazide]
- inhibition of VAP-1 [4]: very good inhibitors of VAP-1

- IC50 [1]: 34 nM
Molecule: C=C(CNN)c1ccccc1 [LJP1207, reference compound]

- IC50 [1]: 31 nM
Molecule: CC(=O)N1CCN(c2ccc(-c3nc4ccncc4n3-c3ccc(F)cc3)cn2)CC1 [Compound 2, 1-(4-{5-[3-(4-Fluorophenyl)-3H-imidazo[4,5-c]pyridin-2-yl]pyridin-2-yl}piperazin-1-yl)ethan-1-one]

- IC50 [1]: 4 nM
Molecule: CS(=O)(=O)N1CCN(c2ccc(-c3nc4ccncc4n3-c3ccc(F)cc3)cn2)CC1 [Compound 3, 1-{5-[3-(4-Fluorophenyl)-3H-imidazo[4,5-c]pyridin-2-yl]pyridin-2-yl}-4-methanesulfonylpiperazine]

- IC50 [1]: 142 nM
Molecule: C[C@@](Cc1ccc(O)c(O)c1)(NN)C(=O)O [(S)-Carbidopa, reference compound]
- inhibition of VAP-1 [4]: very good inhibitors of VAP-1

B1: TEV48125: a fully humanised CGRP antibody (antibody, chains of the INN, looked up, V domains shown)
VH: EVQLVESGGGLVQPGGSLRLSCAASGFTFSNYWISWVRQAPGKGLEWVAEIRSESDASATHYAEAVKGRFTISRDNAKNSLYLQMNSLRAEDTAVYYCLAYFDYGLAIQNYWGQGTLVTVSS
VL: EIVLTQSPATLSLSPGERATLSCKASKRVTTYVSWYQQKPGQAPRLLIYGASNRYLGIPARFSGSGSGTDFTLTISSLEPEDFAVYYCSQSYNYPYTFGQGTKLEIK
- efficacy in the MOH model [5]: efficacious
- efficacy in human clinical trials [6]: efficacious
